{"source": "ChEMBL document CHEMBL1201862", "about": "“PubChem BioAssay data set” (2004)", "key": {"[1]": {"test": "NIH-3T3 fibroblast cytotoxicity, dose response, cytotoxicity control, cell-based, fluorescence, Alamar Blue, secondary assay (AID 2327);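 also: NIH-3T3 mouse fibroblasts cultured with fluconazole at 8 µg/mL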", "assay_type": "functional"}, "[2]": {"test": "luciferase reporter signal suppression in cells – H4 neuroglioma cells, luminescence, dose response (AID 1990)", "assay_type": "functional, cell-based"}, "[3]": {"molecular_target": "T1, Neuropeptide Y receptor type 2 (Homo sapiens, UniProt P49146)", "T1 sequence (P49146 whole entry)": "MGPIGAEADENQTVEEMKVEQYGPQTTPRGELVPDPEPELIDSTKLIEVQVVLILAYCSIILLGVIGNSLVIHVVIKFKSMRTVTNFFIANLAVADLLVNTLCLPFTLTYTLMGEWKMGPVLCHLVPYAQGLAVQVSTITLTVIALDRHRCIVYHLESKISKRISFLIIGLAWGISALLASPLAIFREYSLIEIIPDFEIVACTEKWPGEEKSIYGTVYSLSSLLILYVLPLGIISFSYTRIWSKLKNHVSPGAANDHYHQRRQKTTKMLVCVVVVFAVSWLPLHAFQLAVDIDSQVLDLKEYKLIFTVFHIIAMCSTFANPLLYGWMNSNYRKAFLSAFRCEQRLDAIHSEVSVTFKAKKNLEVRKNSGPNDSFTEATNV", "test": "IC50 for human NPY-Y2 blockade – cell-based, counter-screen for NPY-Y1 antagonist project, dose response (AID 1278)", "assay_type": "functional"}, "[4]": {"test": "Luminescence Cell-Based Dose Response HTS to Identify Inhibitors of 5'UTR Stem-Loop Driven Prion Protein mRNA Translation in H4 Neuroglioblastoma Cells. [Related pubchem assays: 1827 (Project Summary), 1813 (Primary HTS)]", "assay_type": "functional"}, "[5]": {"test": "alpha-synuclein stem-loop luciferase translation blockers – H4 neuroglioma cells, luminescence, confirmation (AID 1988)", "assay_type": "functional, cell-based"}, "[6]": {"test": "fluconazole-exposed Candida albicans growth modulators – fluorescence, retest, confirmation (AID 2467)", "assay_type": "functional, cell-based"}, "[7]": {"molecular_target": "T2, Neuropeptide Y receptor type 1 (Homo sapiens, UniProt P25929)", "T2 sequence (P25929 whole entry)": "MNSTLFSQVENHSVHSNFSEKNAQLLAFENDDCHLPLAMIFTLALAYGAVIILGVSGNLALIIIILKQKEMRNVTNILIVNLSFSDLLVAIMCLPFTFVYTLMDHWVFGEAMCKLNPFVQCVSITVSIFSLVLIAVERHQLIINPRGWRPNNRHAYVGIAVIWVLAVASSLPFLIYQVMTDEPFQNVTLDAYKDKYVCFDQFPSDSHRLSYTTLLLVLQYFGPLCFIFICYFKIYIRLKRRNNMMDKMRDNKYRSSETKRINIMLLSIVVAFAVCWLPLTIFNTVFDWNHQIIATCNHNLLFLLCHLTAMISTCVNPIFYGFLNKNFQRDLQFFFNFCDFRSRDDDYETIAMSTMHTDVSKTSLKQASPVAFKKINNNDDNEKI", "test": "IC50 of human NPY-Y1 blockers – cell-based, dose response (AID 1277)", "assay_type": "functional"}, "[8]": {"test": "Trypanosoma cruzi growth suppression in host cells – NIH3T3 host cells, beta-gal luminescence, confirmation (AID 2044);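 also: intracellular parasites grown in NIH/3T3 mouse fibroblasts as host cells; luminescent beta-galactosidase reporter signal from transgenic T. cruzi replicating inside host cells; inhibitors lower the luminescence signal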", "assay_type": "functional, cell-based"}, "[9]": {"molecular_target": "T3, Serine/threonine-protein phosphatase (Candida dubliniensis (strain CD36 / CBS 7987 / NCPF 3949 / NRRLY-17841) (Yeast), UniProt B9W6M3)", "T3 sequence (B9W6M3 whole entry)": "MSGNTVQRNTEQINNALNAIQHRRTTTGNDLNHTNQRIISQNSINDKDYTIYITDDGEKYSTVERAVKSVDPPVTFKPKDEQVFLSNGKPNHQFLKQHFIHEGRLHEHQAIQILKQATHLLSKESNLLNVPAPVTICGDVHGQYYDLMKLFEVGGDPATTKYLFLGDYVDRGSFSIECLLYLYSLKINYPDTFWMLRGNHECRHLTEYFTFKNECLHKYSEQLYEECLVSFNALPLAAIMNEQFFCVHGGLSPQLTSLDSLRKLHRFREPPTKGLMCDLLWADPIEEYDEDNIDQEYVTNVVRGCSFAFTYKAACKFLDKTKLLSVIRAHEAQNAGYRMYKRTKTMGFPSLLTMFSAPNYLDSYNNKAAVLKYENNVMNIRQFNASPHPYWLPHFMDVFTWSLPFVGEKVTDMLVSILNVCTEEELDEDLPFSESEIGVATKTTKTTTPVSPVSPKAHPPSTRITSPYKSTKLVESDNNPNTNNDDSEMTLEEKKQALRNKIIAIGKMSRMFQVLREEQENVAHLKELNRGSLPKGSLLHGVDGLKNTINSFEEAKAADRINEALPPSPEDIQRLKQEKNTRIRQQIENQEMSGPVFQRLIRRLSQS", "test": "blockers of CaCl2-induced CDRE-lacZ signaling – S. cerevisiae, luminescence, secondary, dose response (AID 2388);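 also: yeast reporter cells carrying a calcineurin-responsive lacZ construct stimulated with calcium chloride; luminescent beta-galactosidase reporter signal in whole cells rather than isolated phosphatase activity; potency for inhibition where a drop in reporter signal means calcineurin blockade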", "assay_type": "functional, cell-based"}, "[10]": {"test": "NIH3T3 cell viability loss – ATP luminescence, mouse fibroblasts, counter-screen, dose response (AID 2010);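 also: cells exposed to compound for about 90 hours before reading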", "assay_type": "functional, cell-based"}, "[11]": {"molecular_target": "ATP-dependent molecular chaperone HSP82 (Candida albicans (strain WO-1) (Yeast), UniProt C4YTQ8)", "sequence (C4YTQ8 whole entry)": "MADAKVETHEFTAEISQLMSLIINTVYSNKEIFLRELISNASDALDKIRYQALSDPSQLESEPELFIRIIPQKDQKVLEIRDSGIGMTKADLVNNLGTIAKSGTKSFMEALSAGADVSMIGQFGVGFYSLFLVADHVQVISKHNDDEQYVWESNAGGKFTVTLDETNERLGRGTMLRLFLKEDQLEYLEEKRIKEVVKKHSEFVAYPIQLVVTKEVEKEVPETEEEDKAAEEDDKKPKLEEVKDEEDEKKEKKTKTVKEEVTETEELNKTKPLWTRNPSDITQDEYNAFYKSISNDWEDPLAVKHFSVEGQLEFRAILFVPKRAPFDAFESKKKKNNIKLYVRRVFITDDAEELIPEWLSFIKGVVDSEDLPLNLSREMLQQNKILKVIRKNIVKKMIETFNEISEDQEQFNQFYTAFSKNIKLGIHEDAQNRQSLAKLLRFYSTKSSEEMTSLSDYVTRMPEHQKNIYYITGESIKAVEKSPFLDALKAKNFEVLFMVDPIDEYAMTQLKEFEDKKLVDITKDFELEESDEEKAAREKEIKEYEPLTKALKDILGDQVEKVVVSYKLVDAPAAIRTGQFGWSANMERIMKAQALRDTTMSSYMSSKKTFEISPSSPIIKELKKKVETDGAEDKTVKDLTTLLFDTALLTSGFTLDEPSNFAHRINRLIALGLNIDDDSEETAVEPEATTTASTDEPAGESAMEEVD", "test": "steroid-induced GRE reporter decrease in yeast – S. cerevisiae, luminescence, Hsp90 inhibitor project, dose response (AID 2400);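 also: beta-galactosidase luminescence from glucocorticoid response element reporter as proxy for Hsp90 function; inhibitor potency where signal loss means Hsp90 inhibition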", "assay_type": "functional, cell-based"}, "Galanin receptor type 3": {"molecular_target": "T4, Galanin receptor type 3 (Homo sapiens, UniProt O60755)", "T4 sequence (O60755 whole entry)": "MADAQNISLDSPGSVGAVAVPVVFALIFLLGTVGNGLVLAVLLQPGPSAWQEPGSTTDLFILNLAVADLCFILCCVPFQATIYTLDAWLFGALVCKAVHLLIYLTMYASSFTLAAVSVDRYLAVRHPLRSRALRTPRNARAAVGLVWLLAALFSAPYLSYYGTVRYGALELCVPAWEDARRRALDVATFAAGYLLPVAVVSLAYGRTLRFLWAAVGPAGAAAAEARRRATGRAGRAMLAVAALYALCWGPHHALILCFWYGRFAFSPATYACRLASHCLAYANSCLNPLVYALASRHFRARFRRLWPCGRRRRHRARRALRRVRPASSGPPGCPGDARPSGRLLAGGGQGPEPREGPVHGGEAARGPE", "test": "Fluorescence-based cell-based primary high throughput dose response assay to identify antagonists of the Galanin Receptor 3 (GalR3).", "assay_type": "functional"}, "cells [12]": {"test": "cells", "assay_type": "functional, cell-based", "conditions": "HEK-CNG"}, "[13]": {"molecular_target": "T5, DNA repair protein RAD52 homolog (Homo sapiens, UniProt P43351)", "T5 sequence (P43351 whole entry)": "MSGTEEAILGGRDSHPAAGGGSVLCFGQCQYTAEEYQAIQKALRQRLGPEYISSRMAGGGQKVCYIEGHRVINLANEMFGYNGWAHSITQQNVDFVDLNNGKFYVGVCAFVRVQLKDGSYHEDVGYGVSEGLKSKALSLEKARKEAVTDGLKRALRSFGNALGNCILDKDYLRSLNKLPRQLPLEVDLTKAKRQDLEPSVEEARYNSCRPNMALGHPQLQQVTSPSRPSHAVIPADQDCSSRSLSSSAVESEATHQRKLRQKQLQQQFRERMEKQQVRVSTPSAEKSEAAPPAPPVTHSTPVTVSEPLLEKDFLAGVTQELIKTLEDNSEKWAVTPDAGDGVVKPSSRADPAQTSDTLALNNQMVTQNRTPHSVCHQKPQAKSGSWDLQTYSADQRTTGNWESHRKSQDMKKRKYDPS", "assay_type": "functional, biochemical"}, "[14]": {"test": "viability loss in HepG2 liver cells – cell-based, ATP luminescence, cherry-pick, set 6, cytotoxicity control, dose response (AID 1053125)", "assay_type": "functional"}, "cells [15]": {"test": "cells"}, "cells [16]": {"test": "cells", "conditions": "A549"}, "cells [17]": {"test": "cells", "conditions": "HEK293"}}, "note": "The source made the active and inactive calls.", "data": [{"molecule": "CC[n+]1c(/C=C2\\SC(c3ccccc3C)=CN2C)sc2ccccc21", "values": [{"measurement": "EC50", "setting": "[1]", "value": "> 150 µM (inactive)"}, {"measurement": "EC50", "setting": "[2]", "value": "8.74 µM (active)"}, {"measurement": "IC50", "setting": "[3]", "value": "29.6 µM (not active)"}, {"measurement": "EC50", "setting": "[4]", "value": "8.01 µM (active)"}, {"measurement": "EC50", "setting": "[5]", "value": "0.619 µM (active)"}, {"measurement": "EC50", "setting": "[6]", "value": "0.212 µM (active)"}, {"measurement": "IC50", "setting": "[7]", "value": "6.98 µM (active)"}, {"measurement": "EC50", "setting": "[8]", "value": "< 0.1 µM (active)"}, {"measurement": "EC50", "setting": "[9]", "value": "> 180 µM (inactive)"}, {"measurement": "EC50", "setting": "[10]", "value": "7.48 µM (active)"}, {"measurement": "EC50", "setting": "[11]", "value": "> 150 µM (inactive)"}, {"measurement": "IC50", "setting": "Galanin receptor type 3", "value": "0.404 µM (active)"}, {"measurement": "EC50", "setting": "cells [12]", "value": "> 29.9 µM (inactive)"}, {"measurement": "AC50", "setting": "[13]", "value": "8.2 µM (active)"}, {"measurement": "AC50", "setting": "[14]", "value": "2.18 µM (active)"}, {"measurement": "EC50", "setting": "cells [15]", "value": "0.021 µM (active)"}, {"measurement": "AC50", "setting": "cells [16]", "value": "2.44 µM (active)"}, {"measurement": "AC50", "setting": "cells [17]", "value": "2.77 µM (active)"}]}]}
